Patent US3981999A, “Fish disease treatment” (Dainippon Pharmaceutical Co., Ltd., priority 1973, dated 1976)
Where two headings read alike, the source gives them in different places.

Assays:
[1] = system: Aeromonas liquefaciens Y-62; assay: MIC by broth serial dilution; type: cell-based; settings: Aeromonas hydrophila
Description: (§1) The MIC (minimum inhibitory concentration) of a test compound was determined by the serial dilution method on various pathogenic microorganisms incubated under the following experimental conditions. The lowest concentration at which the visible growth of the organism was inhibited was considered as MIC. […]
(§2) the broth-dilution method bouillon, pH 7.2, except for Vibrio (3% NaCl-bouillon, pH 7.2), Pasteurella (2% NaCl-Brain Heart Infusion, pH 7.3 and Chondrococcus (TY medium, pH 7.3) 1 drop of a bacterial suspension per test tube (100 - 1000 minimal growing units in the medium) 25°C, except for Pseud. anguilliseptica (20°C)
(§3) 48 hours, except for Pseudo. anguilliseptica ([…])

[2] = system: Aeromonas salmonicida Hara-1; assay: MIC by broth serial dilution; type: cell-based
Description: as §1, §2, §3

[3] = system: Aeromonas salmonicida Hara-2; assay: MIC by broth serial dilution; type: cell-based
Description: as §1, §2, §3

[4] = system: Aeromonas salmonicida Kawazu; assay: MIC by broth serial dilution; type: cell-based
Description: as §1, §2, §3

[5] = system: Aeromonas salmonicida Kusuda; assay: MIC by broth serial dilution; type: cell-based
Description: as §1, §2, §3

Chondrococcus sp K-1 = assay: MIC by broth serial dilution; type: cell-based
Description: as §1, §2, §3

Chondrococcus sp K-2 = assay: MIC by broth serial dilution; type: cell-based
Description: as §1, §2, §3

[6] = system: Pasteurella piscicida Al-3; assay: MIC by broth serial dilution; type: cell-based; settings: Photobacterium damselae
Description: as §1, §2, §3

[7] = system: Pasteurella piscicida K-1; assay: MIC by broth serial dilution; type: cell-based; settings: Photobacterium damselae
Description: as §1, §2, §3

[8] = system: Pseudomonas anguilliseptica S-1; assay: MIC by broth serial dilution; type: cell-based
Description: as §1, §2, §3

[9] = system: Pseudomonas anguilliseptica T-2; assay: MIC by broth serial dilution; type: cell-based
Description: as §1, §2, §3

Vibrio anguillarum A-8 = assay: MIC by broth serial dilution; type: cell-based
Description: as §1, §2, §3

Vibrio anguillarum K-3 = assay: MIC by broth serial dilution; type: cell-based
Description: as §1, §2, §3

Vibrio anguillarum Km-30 = assay: MIC by broth serial dilution; type: cell-based
Description: as §1, §2, §3

[10] = system: Aeromonas liquefacieus Y-62; assay: Oral effect against Aeromonas infection in goldfish; type: in vivo
Description: Goldfish each weighing about 6 - 7 g were given a fish food containing each of the test compounds. After 30 minutes, the fish were infected intramuscularly with Aeromonas liquefacieus Y-62 (about 10^7 germs/fish) under ether anesthesia. […] In the same manner, the control group was given the same fish food without the test compound.

goldfish = assay: Oral toxicity in goldfish; type: in vivo; settings: 10% in diet (PA 800, AT-1493 955, AT-1557 935, AT-1475 923 mg/kg); for Mortality: 7 days; for Number of the survival after 1 day from administration / Number of the survival after 2 days from administration / Number of the survival after 3 days from administration / Number of the survival after 4 days from administration / Number of the survival after 5 days from administration / Number of the survival after 6 days from administration / Number of the survival after 7 days from administration: day 0: 5 fish
Description: A diet containing 10% of each of the test compounds was given orally to groups each consisting of 5 goldfish each weighing 6 to 10 g, and observation was made for the following 7 days. The temperature of the water was maintained at 28°C.

[11] = Y62, bouillon pH 7.2, 25°C, 48 hours, read-out: MIC
[12] = HARA1, bouillon pH 7.2, 25°C, 48 hours, read-out: MIC
[13] = HARA2, bouillon pH 7.2, 25°C, 48 hours, read-out: MIC
[14] = bouillon pH 7.2, 25°C, 48 hours, read-out: MIC
[15] = TY medium pH 7.3, 25°C, 48 hours, read-out: MIC
[16] = AL3, 2% NaCl-Brain Heart Infusion pH 7.3, 25°C, 48 hours, read-out: MIC
[17] = K1, 2% NaCl-Brain Heart Infusion pH 7.3, 25°C, 48 hours, read-out: MIC
[18] = S1, bouillon pH 7.2, 20°C, 7 hours, read-out: MIC
[19] = T2, bouillon pH 7.2, 20°C, 7 hours, read-out: MIC
[20] = A8, 3% NaCl-bouillon pH 7.2, 25°C, 48 hours, read-out: MIC
[21] = K3, 3% NaCl-bouillon pH 7.2, 25°C, 48 hours, read-out: MIC
[22] = KM30, 3% NaCl-bouillon pH 7.2, 25°C, 48 hours, read-out: MIC
[23] = 0.1% in diet (PA 6.1, AT-1493 7.5, AT-1557 7.6, AT-1475 7.5 mg/kg), 5 days
[24] = 0.1% in diet (PA 6.1, AT-1493 7.5, AT-1557 7.6, AT-1475 7.5 mg/kg), day 0: PA 10, others 5 fish
[25] = 0.3% in diet, 22.3 mg/kg, day 0: 5 fish
[26] = 0.03% in diet (PA 2.5, AT-1493 2.5, AT-1557 2.2 mg/kg), 5 days
[27] = 0.03% in diet (PA 2.5, AT-1493 2.5, AT-1557 2.2 mg/kg), day 0: PA 10, others 5 fish
[28] = 1% in diet, 80.4 mg/kg, day 0: 5 fish
[29] = 3% in diet, 253.1 mg/kg, day 0: 5 fish

C=Cn1cc(C(=O)O)c(=O)c2ccc(N3CCNCC3)nc21 [AT-1475, 1,4-Dihydro-7-(1-piperazinyl)-4-oxo-1-vinyl-1,8-naphthyridine-3-carboxylicacid]
10 µg/mL: MIC (Vibrio anguillarum A-8; [20]) | MIC (Vibrio anguillarum Km-30; [22])
0%: Mortality (goldfish)
1 µg/mL: MIC [3, 13] | MIC (Chondrococcus sp K-1; [15]) | MIC (Chondrococcus sp K-2; [15]) | MIC [6, 16] | MIC [7, 17]
3 µg/mL: MIC (Vibrio anguillarum K-3; [21])
60%: Percent survival [10, 23]
0.1 µg/mL: MIC [8, 18] | MIC [9, 19]
0.3 µg/mL: MIC [1, 11] | MIC [2, 12] | MIC [4, 14] | MIC [5, 14]
4: Number of surviving fish after 2 days [10, 24] | Number of surviving fish after 3 days [10, 24]
100%: Percent survival ([10]; 0.3% in diet, 22.3 mg/kg, 5 days)
3: Number of surviving fish after 4 days [10, 24] | Number of surviving fish after 5 days [10, 24]
5: Number of surviving fish after 1 day [10, 24] | Number of surviving fish after 1 day [10, 25] | Number of surviving fish after 2 days [10, 25] | Number of surviving fish after 3 days [10, 25] | Number of surviving fish after 4 days [10, 25] | Number of surviving fish after 5 days [10, 25] | Number of the survival after 1 day from administration (goldfish) | Number of the survival after 2 days from administration (goldfish) | Number of the survival after 3 days from administration (goldfish) | Number of the survival after 4 days from administration (goldfish) | Number of the survival after 5 days from administration (goldfish) | Number of the survival after 6 days from administration (goldfish) | Number of the survival after 7 days from administration (goldfish)

C=Cn1cc(C(=O)O)c(=O)c2ccc(N3CCN(CC)CC3)cc21 [AT-1557, 1,4-Dihydro-7-(4-ethyl-1-piperazinyl)-4-oxo-1-vinylquinoline-3-carboxylic acid]
3 µg/mL: MIC (Vibrio anguillarum A-8; [20])
1 µg/mL: MIC (Chondrococcus sp K-1; [15]) | MIC (Chondrococcus sp K-2; [15]) | MIC [6, 16] | MIC [7, 17]
100%: Percent survival [10, 23]
5: Number of surviving fish after 1 day [10, 27] | Number of surviving fish after 1 day [10, 24] | Number of surviving fish after 2 days [10, 24] | Number of surviving fish after 3 days [10, 24] | Number of surviving fish after 4 days [10, 24] | Number of surviving fish after 5 days [10, 24] | Number of the survival after 1 day from administration (goldfish) | Number of the survival after 2 days from administration (goldfish) | Number of the survival after 3 days from administration (goldfish) | Number of the survival after 4 days from administration (goldfish) | Number of the survival after 5 days from administration (goldfish) | Number of the survival after 6 days from administration (goldfish) | Number of the survival after 7 days from administration (goldfish)
0.1 µg/mL: MIC [4, 14] | MIC [8, 18] | MIC [9, 19]
4: Number of surviving fish after 2 days [10, 27] | Number of surviving fish after 3 days [10, 27] | Number of surviving fish after 4 days [10, 27] | Number of surviving fish after 5 days [10, 27]
0%: Mortality (goldfish)
10 µg/mL: MIC (Vibrio anguillarum K-3; [21]) | MIC (Vibrio anguillarum Km-30; [22])
0.3 µg/mL: MIC [1, 11] | MIC [2, 12] | MIC [3, 13] | MIC [5, 14]
80%: Percent survival [10, 26]

C=Cn1cc(C(=O)O)c(=O)c2ccc(N3CCN(C)CC3)cc21 [AT-1493, 1,4-Dihydro-7-(4-methyl-1-piperazinyl)-4-oxo-1-vinylquinoline-3-carboxylicacid]
1 µg/mL: MIC [6, 16]
5: Number of surviving fish after 1 day [10, 27] | Number of surviving fish after 2 days [10, 27] | Number of surviving fish after 3 days [10, 27] | Number of surviving fish after 4 days [10, 27] | Number of surviving fish after 5 days [10, 27] | Number of surviving fish after 1 day [10, 24] | Number of surviving fish after 2 days [10, 24] | Number of surviving fish after 3 days [10, 24] | Number of surviving fish after 4 days [10, 24] | Number of surviving fish after 5 days [10, 24] | Number of the survival after 1 day from administration (goldfish) | Number of the survival after 2 days from administration (goldfish) | Number of the survival after 3 days from administration (goldfish) | Number of the survival after 4 days from administration (goldfish) | Number of the survival after 5 days from administration (goldfish) | Number of the survival after 6 days from administration (goldfish) | Number of the survival after 7 days from administration (goldfish)
100%: Percent survival [10, 26] | Percent survival [10, 23]
0.3 µg/mL: MIC [7, 17]
0%: Mortality (goldfish)
0.1 µg/mL: MIC [1, 11] | MIC [2, 12] | MIC [3, 13] | MIC [4, 14] | MIC [5, 14] | MIC [8, 18] | MIC [9, 19]
3 µg/mL: MIC (Chondrococcus sp K-1; [15]) | MIC (Chondrococcus sp K-2; [15]) | MIC (Vibrio anguillarum A-8; [20]) | MIC (Vibrio anguillarum K-3; [21]) | MIC (Vibrio anguillarum Km-30; [22])

CN(C)C1C(=O)C(C(N)=O)=C(O)C2(O)C(=O)C3=C(O)c4c(O)cccc4C(C)(O)C3CC12 (centres unmarked) [Tetracycline, tetracycline, reference compound]
0.1 µg/mL: MIC ([3]; HARA2, 48 h, pH 7.2)
1 µg/mL: MIC ([1]; Y62, 48 h, pH 7.2) | MIC ([4]; 48 h, pH 7.2) | MIC (Chondrococcus sp K-1; 48 h, pH 7.3) | MIC (Chondrococcus sp K-2; 48 h, pH 7.3) | MIC (Vibrio anguillarum A-8; A8, 48 h, pH 7.2) | MIC (Vibrio anguillarum K-3; K3, 48 h, pH 7.2)
zero: Percent survival ([10]; diet concentration of as high as more than 0.1% as well as as low as 0.1%)
1: Number of surviving fish after 2 days [10, 29]
0%: Percent survival ([10]; 1% in diet, 80.4 mg/kg) | Percent survival ([10]; 3% in diet, 253.1 mg/kg)
0.3 µg/mL: MIC ([2]; HARA1, 48 h, pH 7.2) | MIC ([5]; 48 h, pH 7.2) | MIC ([6]; AL3, 48 h, pH 7.3) | MIC ([7]; K1, 48 h, pH 7.3) | MIC ([8]; S1, 7 h, pH 7.2) | MIC ([9]; T2, 7 h, pH 7.2) | MIC (Vibrio anguillarum Km-30; KM30, 48 h, pH 7.2)
3: Number of surviving fish after 1 day [10, 28]
0: Number of surviving fish after 2 days [10, 28] | Number of surviving fish after 3 days [10, 28] | Number of surviving fish after 3 days [10, 29]
5: Number of surviving fish after 1 day [10, 29]
